Measurements from patent publication US8722656B2, “Cephalosporins useful as antibacterial agents” (Zoetis LLC, priority 2011, dated 2014).
Converted amounts (≈) assume the structure as drawn.

Columns and labels:
E. coli 25922 = assay: Dilution antimicrobial susceptibility test (M07-A8), E. coli; type: cell-based, Escherichia coli; conditions: for MIC: Escherichia coli, antibacterial activity by dilution susceptibility test, isolate 25922; for E. coli/P. multocida: selectivity for P. multocida over E. coli (ratio of the two values)
Method: (§1) Compounds of the present invention were tested against an assortment of Gram-negative and Gram-positive organisms using the industrial standard techniques described in Methods for Dilution Antimicrobial Susceptibility Tests for Bacteria That grow Aerobically; Approved Standard-Eighth Edition, […]-A8, Vol. 29 No. 2 Replaces […]-A7 Vol. 26 No. 2. […] When comparing the activity against these isolates with that of the marketed human health drug of cefepime (screened in the same panel), the exemplified compounds of the present invention show >200 times more selectivity over E. coli.

M. haemo 43411 = assay: Dilution antimicrobial susceptibility test (M07-A8), M. haemolytica; type: cell-based; conditions: Mannheimia haemolytica; antibacterial activity by dilution susceptibility test, isolate 43411
Method: as §1

P. multo 43719 = assay: Dilution antimicrobial susceptibility test (M07-A8), P. multocida; type: cell-based; conditions: Pasteurella multocida; antibacterial activity by dilution susceptibility test, isolate 43719
Method: as §1

Compound	MIC (E. coli 25922) [µg/mL]	E. coli/P. multocida (E. coli 25922)	MIC (M. haemo 43411) [µg/mL]	MIC (P. multo 43719) [µg/mL]
CO/N=C(\C(=O)N[C@@H]1C(=O)N2C(C(=O)O)=C(Cc3cccc(CSC(C)=O)c3C)CS[C@H]12)c1csc(N)n1 [Example 1, (6R,7R)-3-{3-[(acetylsulfanyl)methyl]-2-methylbenzyl}-7-{[(2Z)-2-(2-amino-1,3-thiazol-4-yl)-2-(methoxyimino)acetyl]amino}-8-oxo-5-thia-1-azabicyclo[4.2.0]oct-2-ene-2-carboxylic acid]	16 (≈ 27.8 µM)	533	0.06 (≈ 0.104 µM)	0.03 (≈ 0.0521 µM)
CO/N=C(\C(=O)N[C@@H]1C(=O)N2C(C(=O)O)=C(Cc3ccc(CSC(C)=O)cc3C)CS[C@H]12)c1csc(N)n1 [Example 2, (6R,7R)-3-{4-[(acetylsulfanyl)methyl]-2-methylbenzyl}-7-{[(2Z)-2-(2-amino-1,3-thiazol-4-yl)-2-(methoxyimino)acetyl]amino}-8-oxo-5-thia-1-azabicyclo[4.2.0]oct-2-ene-2-carboxylic acid]	32 (≈ 55.6 µM)	533	0.25 (≈ 0.434 µM)	0.06 (≈ 0.104 µM)
CO/N=C(\C(=O)N[C@@H]1C(=O)N2C(C(=O)O)=C(Cc3cc(CSC(C)=O)ccc3C)CS[C@H]12)c1csc(N)n1 [Example 3, (6R,7R)-3-{5-[(acetylsulfanyl)methyl]-2-methylbenzyl}-7-{[(2Z)-2-(2-amino-1,3-thiazol-4-yl)-2-(methoxyimino)acetyl]amino}-8-oxo-5-thia-1-azabicyclo[4.2.0]oct-2-ene-2-carboxylic acid]	32 (≈ 55.6 µM)	256	0.25 (≈ 0.434 µM)	0.125 (≈ 0.217 µM)
CO/N=C(\C(=O)N[C@@H]1C(=O)N2C(C(=O)O)=C(Cc3c(C)ccc(CSC(C)=O)c3C)CS[C@H]12)c1csc(N)n1 [Example 4, (6R,7R)-3-{3-[(acetylsulfanyl)methyl]-2,6-dimethylbenzyl}-7-{[(2Z)-2-(2-amino-1,3-thiazol-4-yl)-2-(methoxyimino)acetyl]amino}-8-oxo-5-thia-1-azabicyclo[4.2.0]oct-2-ene-2-carboxylic acid]	32 (≈ 54.3 µM)	128	0.5 (≈ 0.848 µM)	0.25 (≈ 0.424 µM)
CO/N=C(\C(=O)N[C@@H]1C(=O)N2C(C(=O)O)=C(Cc3c(C)c(CO)cc(CSC(C)=O)c3C)CS[C@H]12)c1csc(N)n1 [Example 5, (6R,7R)-3-{3-[(acetylsulfanyl)methyl]-5-(hydroxymethyl)-2,6-dimethylbenzyl}-7-{[(2Z)-2-(2-amino-1,3-thiazol-4-yl)-2-(methoxyimino)acetyl]amino}-8-oxo-5-thia-1-azabicyclo[4.2.0]oct-2-ene-2-carboxylic acid]	32 (≈ 51.6 µM)	533	0.125 (≈ 0.202 µM)	0.06 (≈ 0.0968 µM)
CO/N=C(\C(=O)N[C@@H]1C(=O)N2C(C(=O)O)=C(Cc3c(C)cc(CSC(C)=O)cc3C)CS[C@H]12)c1csc(N)n1 [Example 6, (6R,7R)-3-{4-[(acetylsulfanyl)methyl]-2,6-dimethylbenzyl}-7-{[(2Z)-2-(2-amino-1,3-thiazol-4-yl)-2-(methoxyimino)acetyl]amino}-8-oxo-5-thia-1-azabicyclo[4.2.0]oct-2-ene-2-carboxylic acid]	32 (≈ 54.3 µM)	128	0.5 (≈ 0.848 µM)	0.25 (≈ 0.424 µM)
CO/N=C(\C(=O)N[C@@H]1C(=O)N2C(C(=O)O)=C(Cc3cccc(NC(=O)CSC(C)=O)c3C)CS[C@H]12)c1csc(N)n1 [Example 7, (6R,7R)-3-(3-{[(acetylsulfanyl)acetyl]amino}-2-methylbenzyl)-7-{[(2Z)-2-(2-amino-1,3-thiazol-4-yl)-2-(methoxyimino)acetyl]amino}-8-oxo-5-thia-1-azabicyclo[4.2.0]oct-2-ene-2-carboxyl is acid]	16 (≈ 25.9 µM)	266	0.06 (≈ 0.097 µM)	0.06 (≈ 0.097 µM)
CO/N=C(\C(=O)N[C@@H]1C(=O)N2C(C(=O)O)=C(Cc3cc(NC(=O)CSC(C)=O)ccc3C)CS[C@H]12)c1csc(N)n1 [Example 8, (6R,7R)-3-(5-{[(acetylsulfanyl)acetyl]amino}-2-methylbenzyl)-7-{[(2Z)-2-(2-amino-1,3-thiazol-4-yl)-2-(methoxyimino)acetyl]amino}-8-oxo-5-thia-1-azabicyclo[4.2.0]oct-2-ene-2-carboxyl is acid]	16 (≈ 25.9 µM)	266	0.06 (≈ 0.097 µM)	0.06 (≈ 0.097 µM)
CCCN(C(=O)CSC(C)=O)c1ccc(CC2=C(C(=O)O)N3C(=O)[C@@H](NC(=O)/C(=N\OC)c4csc(N)n4)[C@H]3SC2)cc1 [Example 9]	64 (≈ 99 µM)	256	0.5 (≈ 0.773 µM)	0.25 (≈ 0.387 µM)
CO/N=C(\C(=O)N[C@@H]1C(=O)N2C(C(=O)O)=C(Cc3cccc(N(C)C(=O)CSC(C)=O)c3)CS[C@H]12)c1csc(N)n1 [Example 10]	32 (≈ 51.7 µM)	533	0.125 (≈ 0.202 µM)	0.06 (≈ 0.097 µM)
CO/N=C(\C(=O)N[C@@H]1C(=O)N2C(C(=O)O)=C(Cc3cccc(NC(=O)CSC)c3)CS[C@H]12)c1csc(N)n1 [Example 11, (6R,7R)-7-{[(2Z)-2-(2-amino-1,3-thiazol-4-yl)-2-(methoxyimino)acetyl]amino}-3-(3-{[(methylsulfanyl)acetyl]amino}benzyl)-8-oxo-5-thia-1-azabicyclo[4.2.0]oct-2-ene-2-carboxylic acid]	4 (≈ 6.94 µM)	133	0.03 (≈ 0.052 µM)	0.03 (≈ 0.052 µM)
CO/N=C(\C(=O)N[C@@H]1C(=O)N2C(C(=O)O)=C(Cc3cccc(NC(=O)CSC(C)=O)c3)CS[C@H]12)c1csc(N)n1 [Example 12, (6R,7R)-3-(3-{[(acetylsulfanyl)acetyl]amino}benzyl)-7-{[(2Z)-2-(2-amino-1,3-thiazol-4-yl)-2-(methoxyimino)acetyl]amino}-8-oxo-5-thia-1-azabicyclo[4.2.0]oct-2-ene-2-carboxylic acid]	8 (≈ 13.2 µM)	133	0.03 (≈ 0.0496 µM)	0.06 (≈ 0.0992 µM)
CO/N=C(\C(=O)N[C@@H]1C(=O)N2C(C(=O)O)=C(Cc3cccc(N(C(=O)CS)C(C)C)c3)CS[C@H]12)c1csc(N)n1 [Example 13, (6R,7R)-7-{[(2Z)-2-(2-amino-1,3-thiazol-4-yl)-2-(methoxyimino)acetyl]amino}-8-oxo-3-{3-[propan-2-yl(sulfanylacetyl)amino]benzyl}-5-thia-1-azabicyclo[4.2.0]oct-2-ene-2-carboxylic acid]	8 (≈ 13.2 µM)	266	0.06 (≈ 0.0992 µM)	0.03 (≈ 0.0496 µM)
CO/N=C(\C(=O)N[C@@H]1C(=O)N2C(C(=O)O)=C(Cc3cc(NS(C)(=O)=O)cc(C)c3C)CS[C@H]12)c1csc(N)n1 [Example 14, (6R,7R)-7-{[(2Z)-2-(2-amino-1,3-thiazol-4-yl)-2-(methoxyimino)acetyl]amino}-3-{2,3-dimethyl-5-[(methylsulfonyl)amino]benzyl}-8-oxo-5-thia-1-azabicyclo[4.2.0]oct-2-ene-2-carboxylic acid]	16 (≈ 26.9 µM)	533	0.06 (≈ 0.101 µM)	0.03 (≈ 0.0504 µM)
CO/N=C(\C(=O)N[C@@H]1C(=O)N2C(C(=O)O)=C(Cc3cc(NS(C)(=O)=O)c(C)cc3C)CS[C@H]12)c1csc(N)n1 [Example 15, (6R,7R)-7-{[(2Z)-2-(2-amino-1,3-thiazol-4-yl)-2-(methoxyimino)acetyl]amino}-3-{2,4-dimethyl-5-[(methylsulfonyl)amino]benzyl}-8-oxo-5-thia-1-azabicyclo[4.2.0]oct-2-ene-2-carboxylic acid]	32 (≈ 53.8 µM)	256	0.5 (≈ 0.841 µM)	0.125 (≈ 0.21 µM)
CO/N=C(\C(=O)N[C@@H]1C(=O)N2C(C(=O)O)=C(Cc3cccc(N(C)S(C)(=O)=O)c3)CS[C@H]12)c1csc(N)n1 [Example 16, (6R,7R)-7-{[(2Z)-2-(2-amino-1,3-thiazol-4-yl)-2-(methoxyimino)acetyl]amino}-3-{3-[methyl(methylsulfonyl)amino]benzyl}-8-oxo-5-thia-1-azabicyclo[4.2.0]oct-2-ene-2-carboxylic acid]	16 (≈ 27.6 µM)	533	0.03 (≈ 0.0517 µM)	0.03 (≈ 0.0517 µM)
CO/N=C(\C(=O)N[C@@H]1C(=O)N2C(C(=O)O)=C(Cc3cccc(NS(C)(=O)=O)c3)CS[C@H]12)c1csc(N)n1 [Example 17, (6R,7R)-7-{[(2Z)-2-(2-amino-1,3-thiazol-4-yl)-2-(methoxyimino)acetyl]amino}-3-{3-[(methylsulfonyl)amino]benzyl}-8-oxo-5-thia-1-azabicyclo[4.2.0]oct-2-ene-2-carboxylic acid]	8 (≈ 14.1 µM)	266	0.015 (≈ 0.0265 µM)	0.03 (≈ 0.0529 µM)
CO/N=C(\C(=O)N[C@@H]1C(=O)N2C(C(=O)O)=C(Cc3cc(NS(C)(=O)=O)cc(OC)c3)CS[C@H]12)c1csc(N)n1 [Example 18, (6R,7R)-7-{[(2Z)-2-(2-amino-1,3-thiazol-4-yl)-2-(methoxyimino)acetyl]amino}-3-{3-methoxy-5-[(methylsulfonyl)amino]benzyl}-8-oxo-5-thia-1-azabicyclo[4.2.0]oct-2-ene-2-carboxylic acid]	16 (≈ 26.8 µM)	266	0.08 (≈ 0.134 µM)	0.06 (≈ 0.101 µM)
CO/N=C(\C(=O)N[C@@H]1C(=O)N2C(C(=O)O)=C(Cc3cc(C)cc(NS(C)(=O)=O)c3)CS[C@H]12)c1csc(N)n1 [Example 19, (6R,7R)-7-{[(2Z)-2-(2-amino-1,3-thiazol-4-yl)-2-(methoxyimino)acetyl]amino}-3-{3-methyl-5-[(methylsulfonyl)amino]benzyl}-8-oxo-5-thia-1-azabicyclo[4.2.0]oct-2-ene-2-carboxylic acid]	8 (≈ 13.8 µM)	1000	8 (≈ 13.8 µM)	0.008 (≈ 0.0138 µM)
